Data set [1] is described as follows: Anxiolytic activity, group of tests (LAB-X elevated plus-maze, SKINNER, VOGEL). The data set is classed as in vivo, rat. The settings on record: 30 mg/kg by mouth. An excerpt: These compounds were also studied in order to test for anxiolytic activity using a group of tests
(Ref.: LAB-X: Sh. Pellow, Ph. Chopin, S. E. File and M. Briley--Validation of open:closed arm entries in an elevated plus-maze as a measure of anxiety in the rat (Journal of Neuroscience Methods, 14 (1983), 149-167)
SKINNER: GELLER and SEIFTER, Psychopharmacologia (1960) 1, 482-492

Data set [2] can be described thus: Toxicity study in the mouse, oral single dose (LD50). In kind it is in vivo. The note with it: for toxicity: summary in conclusion. As to the method:
The toxicity study was carried out in the conventional mouse, weighing about 20 g.
The substances were administered orally in a single dose of 300 and 1000 mg/kg respectively. At these doses we were not able to determine the LD50 's which are higher >1000 mg/kg.

A further data set deals with 5 HTP. In words: Potentialization of 5 HTP. In kind it is in vivo. The text has this: The tests used for the pharmacological screening are:
the potentialization of 5 HTP (Ref.: Christensen, A. V. et al., Eur. J. of Pharm. (1977), 41, 153-162)

A short description of another data set: Solubility. In kind it is physicochemical.

A value given as a limit tells only on which side of the number the result lay.

The term LD50 denotes the dose expected to kill half of the subjects tested. Low readings indicate greater toxicity, high ones lower toxicity. As usually defined, the ED50 is the midpoint of the dose-response relation. High values mean weaker potency, low ones greater potency.

For the compound `COc1ccc(-c2cnn(CC(C)=O)c(=O)n2)cc1` [Example 1, 2-acetonyl 3-oxo 5-p-methoxyphenyl ax.-triazine], in data set [1], the anxiolytic activity result is “significant results”. The same compound yielded a median lethal dose (LD50) in data set [2] (in vivo, mouse, oral, single dose) greater than 3000 mg/kg. Also, in data set [2], the toxicity result is given as “very low toxicity”. The compound also came in with an ED50 with 5 HTP of 25 mg/kg.

For `COc1ccc(-c2cnn(C(C)C(C)=O)c(=O)n2)cc1` (stereo not drawn) [Example 4, 2-alpha-methylacetonyl 3-oxo 5-p-methoxyphenyl as.-triazine], the anxiolytic activity result in data set [1] is “significant results”. Besides, in the data set “Solubility”, the solubility in chloroform result is “Soluble”, the “solubility in methylene chloride” value is “Soluble” and the solubility in water entry was “insoluble”. In data set [2], the toxicity result is “very low toxicity”. Moreover, in the data set on 5 HTP, the ED50 amounted to 35 mg/kg.

Consider `CC(=O)COc1ccc(-c2cnn(C)c(=O)n2)cc1` [Example 9, 2-methyl 3-oxo 5-p-acetonoxyphenyl as.-triazine], for which, in data set [1], the anxiolytic activity entry was “significant results”. The “solubility in aqueous dilute acids” value in “Solubility” (aqueous dilute acids) is given as “Soluble”. In the data set “Solubility”, the solubility in chloroform result is “insoluble”, the “solubility in methylene chloride” value is on record as “Soluble” and the solubility in water result is given as “insoluble”. In the data set with 5 HTP, this compound gave an ED50 of 40 mg/kg.

For `COc1ccc(-c2cnn(C3CCOC3=O)c(=O)n2)cc1` (stereo not drawn) [Example 21, 2-γ-butyrolactone 3-oxo 5-p-methoxyphenyl as.-triazine], the anxiolytic activity result in data set [1] is on record as “significant results”. For the same compound, in the data set “Solubility”, the solubility in alcohols entry is “poorly soluble”, the solubility in benzene entry was “poorly soluble”, the solubility in chloroform entry was “Soluble” and the “solubility in methylene chloride” value is listed as “Soluble”. For the same compound, the solubility in water result in the data set “Solubility” is given as “insoluble”. In addition, the toxicity result in data set [2] is “very low toxicity”. This compound also registered an ED50 with 5 HTP of 27 mg/kg.

Turning to `CC(C)C(=O)Cn1ncc(-c2ccccc2)nc1=O` [Example 22, 2-(3-methyl-2-one butyl) 5-phenyl as.-triazine], the anxiolytic activity entry in data set [1] is reported as “significant results”. In “Solubility”, the “solubility in alcohols in the hot” value is “soluble”, the solubility in chloroform result is recorded as “Soluble”, the “solubility in methylene chloride” value is listed as “Soluble” and the solubility in water entry is on record as “insoluble”.

In the case of `COc1ccccc1-c1cnn(CC(C)=O)c(=O)n1` [Example 23, 2-acetonyl 3-oxo 5-o-methoxyphenyl as.-triazine], in “Solubility”, the solubility in chloroform entry is “Soluble”, the solubility in ether result was “insoluble”, the “solubility in methylene chloride” value was “Soluble” and the solubility in water result is reported as “insoluble”. The ED50 in the data set with 5 HTP is 50 mg/kg.

For the compound `COc1ccc(-c2cnn(CC(N)=O)c(=O)n2)cc1` [Example 32, 2-N-acetamido 3-oxo 5-p-methoxyphenyl as.-triazine], in the data set “Solubility”, the solubility in alcohols result is on record as “Insoluble”, the solubility in chloroform entry is “Insoluble”, the solubility in ether result was “Insoluble” and the solubility in water entry was “Insoluble”. Further, the toxicity entry in data set [2] was “very low toxicity”. This compound yielded an ED50 in the data set on 5 HTP of 20 mg/kg.

Take `COc1ccc(-c2cnn(CCCC(=O)c3ccc(F)cc3)c(=O)n2)cc1` [Example 33, 2-N-(γp-fluorobutyrophenone) 3-oxo 5-p-methoxyphenyl as.-triazine]: in the data set “Solubility”, the solubility in chloroform entry is recorded as “Soluble”, the “solubility in methylene chloride” value was “Soluble” and the solubility in water result is listed as “insoluble”.

`COc1ccc(-c2cnn(C(C(=O)c3ccccc3)c3ccccc3)c(=O)n2)cc1` (stereo not drawn) [Example 34, 2-N-desyl 3-oxo 5-p-methoxyphenyl as.-triazine]: in “Solubility”, the “solubility in alcohols in the hot” value is reported as “Soluble”, the solubility in chloroform entry is “rather soluble”, the solubility in ether result is “poorly soluble” and the solubility in water entry was “insoluble”.

As for `CCOC(=O)CCCn1ncc(-c2ccc(C)cc2)nc1=O` [Example 35, 2-N-ethylbutyrate 3-oxo 5-p-methylphenyl as.-triazine], in the data set “Solubility”, the solubility in alcohols result is given as “Soluble”, the solubility in benzene result was “Soluble”, the solubility in chloroform entry is “Soluble” and the solubility in water result is “insoluble”.

`Cc1ccc(-c2cnn(C(C(=O)c3ccccc3)c3ccccc3)c(=O)n2)cc1` (stereo not drawn) [Example 36, 2-N-desyl 3-oxo 5-p-methylphenyl as.-triazine]: in the data set “Solubility”, the “solubility in alcohols in the hot” value was “Soluble”, the solubility in chloroform result is recorded as “Soluble”, the “solubility in methylene chloride” value is reported as “Soluble” and the solubility in water entry is given as “insoluble”.

Consider `COc1ccc(-c2cnn(CC(=O)c3ccccc3)c(=O)n2)cc1` [Example 37, 2-Phenacyl 3-oxo 5-p.methoxyphenyl as triazine], for which, in the data set “Solubility”, the “solubility in acetic acid” value is listed as “Soluble” and the solubility in water result is given as “insoluble”.

Turning to `COc1ccc(-c2cnn(CC(=O)c3ccc(C)cc3)c(=O)n2)cc1` [Example 38, 2-p.methylphenacyl 3-oxo 5-p.methoxyphenyl as triazine], in “Solubility”, the “solubility in acetic acid” value is recorded as “Soluble”, the solubility in alcohols result was “Insoluble” and the solubility in water entry is on record as “Insoluble”.

`COc1ccc(-c2cnn(CC(=O)c3ccc(Cl)cc3Cl)c(=O)n2)cc1` [Example 39, 2-(dichloro-2,4 phenacyl) 3-oxo 5-p.methoxyphenyl as triazine]: in “Solubility”, the “solubility in acetic acid” value is “Soluble”, the solubility in alcohols result is “Insoluble” and the solubility in water result was “Insoluble”.

For `COc1ccc(C(=O)Cn2ncc(-c3ccc(OC)cc3)nc2=O)cc1` [Example 40, 2-p.methoxyphenacyl 3-oxo 5-p.methoxyphenyl as triazine], in the data set “Solubility”, the “solubility in acetic acid” value is recorded as “Insoluble”, the solubility in alcohols result is on record as “Insoluble” and the solubility in water entry is reported as “Insoluble”.

On to `CCC(=O)Cn1ncc(-c2ccc(OC)cc2)nc1=O` [Example 41, 2-(oxo-2' butyl) 3-oxo 5-p.methoxyphenyl as triazine], for which, in the data set “Solubility”, the “solubility in acetic acid” value is “Soluble”, the solubility in alcohols result is on record as “Insoluble” and the solubility in water entry is listed as “Insoluble”.

(Values after patent publication US4851411A, “5-monoaryl as.-triazin-3-ones substituted in 2-position, and their use as medicaments” (Pierre Fabre Medicament, priority 1986, dated 1989).)
